Results as given in paper PMC11954305, “Generate what you can make: achieving in-house synthesizability with readily available resources in de novo drug design” (Journal of Cheminformatics, 2025).

What follows are compounds tested against T1, monoglyceride lipase (MGLL) (Homo sapiens, UniProt Q99685) (assay: natural substrate assay, residual MGLL activity). Details: enzyme preparation and conditions only in Supplementary section D.
T1 construct: enzyme source only in Supplementary section D
T1 sequence (Q99685 1-303): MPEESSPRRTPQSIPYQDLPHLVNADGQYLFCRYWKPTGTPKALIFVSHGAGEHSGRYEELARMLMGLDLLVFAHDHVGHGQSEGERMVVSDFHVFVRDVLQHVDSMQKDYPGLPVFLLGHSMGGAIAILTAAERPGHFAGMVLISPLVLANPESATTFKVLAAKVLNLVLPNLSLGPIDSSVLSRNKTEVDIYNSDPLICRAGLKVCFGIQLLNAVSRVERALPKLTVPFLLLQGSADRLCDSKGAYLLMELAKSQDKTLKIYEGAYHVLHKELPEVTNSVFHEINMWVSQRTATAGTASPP

IC50 [µM] | Compound
1 | O=C(OC(C(F)(F)F)C(F)(F)F)N1CCN(C2CCCCC2)CC1 [compound 1, Compound 1]
~100 | O=C(N1CCCC(c2ccc(F)cc2)C1)n1nnc2ccccc21 (stereo not drawn) [compound 2]
~100 | O=C(c1nccs1)N1CCN(C(c2ccccc2)c2ccccc2)CC1 [compound 3]
